According to PubChem BioAssay AID2060490 (Molecular Pharmacology Branch, DTP, NCI, 2025):
Where “and” joins values, the source holds several entries; their conditions need not be identical. Identical values can stand only once.

System: 885512-296-R-J2-PDC complex spheroid viability
Experiment: Anticancer human tumor 885512-296-R-J2-PDC patient-derived breast carcinoma cell line growth inhibition [GQUAD]
Conditions: for viability, T/C: stronger effect = lower value; active = viability on the fitted dose curve at most 10% of control; inactive = the rest
Source text: DNA G-quadruplex Stabilizer Agents in Combinations in Complex Spheroids
A high-throughput screen of multi-cell type tumor spheroids was designed to identify active combinations of DNA G-quadruplex stabilizer agents and targeted small molecules. Complex spheroids include a stromal component modeled by human endothelial cells (HUVEC) and fibroblasts modeled by human mesenchymal stem cells (MSCs). The concentration ranges selected for each drug and investigational agent were based upon clinically achievable concentrations if the clinical Cmax of the agent was known.
Compounds. The drugs and investigational agents: pidnarulex (CX-5461; NSC782164), APTO-253 (NSC789042), BRACO-19 (NSC847499), peposertib (NSC802822), ceralasertib (NSC780249), elimusertib (NSC800525), camonsertib (NSC841442), AZD-1390 (NSC803789), olaparib (NSC753686), talazoparib (NSC767125), ART-558 (NSC835418), sotorasib (NSC818433), MRTX-1133 (NSC836407), SN-38 (NSC673596), topotecan (NSC609699), etoposide (NSC141540), doxorubicin (NSC123127), gemcitabine (NSC613327), 5-fluorouracil (NSC19893), paclitaxel (NSC125973), vemurafenib (NSC761431), panobinostat (NSC761190), R-306465 (JNJ-16241199; NSC773264), adavosertib (NSC754352), TP-3654 (NSC805149), carboplatin (NSC241240), KSQ-4279 (NSC840948), and staurosporine (NSC755774) were obtained from the National Cancer Institute (NCI) Developmental Therapeutics Program Chemical Repository (34). The FDA-approved anticancer drug set is available from the NCI Developmental Therapeutics Program. […] The stock solutions were prepared in dimethyl sulfoxide (DMSO, Sigma-Aldrich, St. Louis, MO, cat. D2650) at 800-fold the tested concentration and stored at -70 degrees C prior to their use. All drugs and investigational agents were tested over a range starting from a high concentration at or near the clinical Cmax and decreasing in half-log increments. If the clinical Cmax for an agent had not been determined, the highest concentration tested was 10 microM.
2.3 Cell Culture. All cells were maintained in an incubator at 37 degrees C and 5% CO2 with 95% humidity. The PDC lines were cultured according to standard operating procedures established by the NCI PDMR. All PDCs were thawed and cultured in Matrigel-coated flasks prepared with a working solution of 1X Ham's F-12 nutrient mix, without supplementation (Invitrogen, cat. 11765054), 100 U/mL penicillin-streptomycin (Invitrogen, cat. 15140122), and 2.5% Matrigel (Corning Inc., cat. 354248) for the first three passages. The 857933-349-R-J2-PDC line was cultured in 6C/Colon 1B media, which includes advanced DMEM/F-12 (Thermo Fisher Scientific, cat. 12634028), 10 mM HEPES (Thermo Fisher Scientific, cat. 15630080), 1X GlutaMAX supplement (Thermo Fisher Scientific, cat. 35050061), 0.1 mg/mL primocin (InvivoGen, cat. ant-pm-2), 10% defined fetal bovine serum, heat inactivated (HyClone Laboratories Inc., cat. SH30070.03HI), 50% L-WRN conditioned media (ATCC, cat. CRL-3276), 1.25 mM N-Acetyl-L-cysteine (Sigma-Aldrich, cat. A9165), 10 mM nicotinamide (Sigma-Aldrich, cat. N0636), 1X B-27 supplement (Thermo Fisher Scientific, cat. 17504044), 1X N-2 supplement (Thermo Fisher Scientific, cat. 17502048), 10 microM Y-27632 dihydrochloride (Tocris Bioscience, cat. 1254), and 50 ng/mL human EGF recombinant protein (Thermo Fisher Scientific, cat. PHG0311). The 485176-168-R4-J1-PDC line was cultured in Panc media, which includes all 6C/Colon 1B media components plus 100 ng/mL human FGF-10 (Thermo Fisher Scientific, cat. 100-26), 500 nM SB-431542 (Selleckchem, cat. S1067), and gastrin (Tocris, cat. 3006).
[…]
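Also: spheroids exposed to the compounds for one week.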
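For viability, T/C in this document: percent of tumor spheroid viability relative to DMSO vehicle control wells.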

COc1cccc2c1C(=O)c1c(O)c3c(c(O)c1C2=O)CC(O)(C(=O)CO)CC3OC1CC(N)C(O)C(C)O1 (stereo not given) + Cc1[nH]c2ccc(F)cc2c1-c1nc2c3cccnc3c3ncccc3c2[nH]1
81.9 nM: IC50 (curve of first compound, second compound 0.316 µM)
89.6 nM: IC50 (curve of first compound, second compound 0.0316 µM)
inactive: viability, T/C (second compound 0.0316 µM, first compound 0.0316 µM) 96.2% | viability, T/C (second compound 0.0316 µM, first compound 0.1 µM) 41.8% | viability, T/C (second compound 0.0316 µM, first compound 0.316 µM) 25.3% | viability, T/C (second compound 0.1 µM, first compound 0.0316 µM) 101% | viability, T/C (second compound 0.1 µM, first compound 0.1 µM) 36.4% | viability, T/C (second compound 0.1 µM, first compound 0.316 µM) 23.9% | viability, T/C (second compound 0.316 µM, first compound 0.0316 µM) 85.5% | viability, T/C (second compound 0.316 µM, first compound 0.1 µM) 39.4% | viability, T/C (second compound 0.316 µM, first compound 0.316 µM) 25.1% | viability, T/C (second compound 1 µM, first compound 0.0316 µM) 67.7% | viability, T/C (second compound 1 µM, first compound 0.1 µM) 32% | viability, T/C (second compound 1 µM, first compound 0.316 µM) 20% | viability, T/C (second compound 3.16 µM, first compound 0.0316 µM) 17.2% | viability, T/C (second compound 3.16 µM, first compound 0.1 µM) 12.3%
active: viability, T/C (second compound 0.0316 µM, first compound 1 µM) 9.04% | viability, T/C (second compound 0.0316 µM, first compound 3.16 µM) 0.5% | viability, T/C (second compound 0.0316 µM, first compound 10 µM) 2.46% | viability, T/C (second compound 0.1 µM, first compound 1 µM) 10.9% | viability, T/C (second compound 0.1 µM, first compound 3.16 µM) 0.36% | viability, T/C (second compound 0.1 µM, first compound 10 µM) 3.62% | viability, T/C (second compound 0.316 µM, first compound 1 µM) 8.52% | viability, T/C (second compound 0.316 µM, first compound 3.16 µM) 0.35% | viability, T/C (second compound 0.316 µM, first compound 10 µM) 2.33% | viability, T/C (second compound 1 µM, first compound 1 µM) 7.54% | viability, T/C (second compound 1 µM, first compound 3.16 µM) 0.39% | viability, T/C (second compound 1 µM, first compound 10 µM) 2.51% | viability, T/C (second compound 3.16 µM, first compound 0.316 µM) 4.34% | viability, T/C (second compound 3.16 µM, first compound 1 µM) 2.57% | viability, T/C (second compound 3.16 µM, first compound 3.16 µM) 0.34% | viability, T/C (second compound 3.16 µM, first compound 10 µM) 1.2% | viability, T/C (second compound 10 µM, first compound 0.0316 µM) 1.64% | viability, T/C (second compound 10 µM, first compound 0.1 µM) 1.76% | viability, T/C (second compound 10 µM, first compound 0.316 µM) 2.1% | viability, T/C (second compound 10 µM, first compound 1 µM) 1.15% | viability, T/C (second compound 10 µM, first compound 3.16 µM) 0.87% | viability, T/C (second compound 10 µM, first compound 10 µM) 0.81%
< 31.6 nM: IC50 (curve of first compound, second compound 3.16 µM) | IC50 (curve of first compound, second compound 10 µM)
58 nM: IC50 (curve of first compound, second compound 1 µM)
84.1 nM: IC50 (curve of first compound, second compound 0.1 µM)

CC(C)n1c(=O)n(C)c2cnc3cc(F)c(-c4ccc(OCCCN5CCCCC5)nc4)cc3c21
inactive: viability, T/C (compound 0.0316 µM) 88.8% and 89% and 85.8% | viability, T/C (compound 0.1 µM) 97% and 84.5% and 80.4% | viability, T/C (compound 0.316 µM) 88% and 93.7% and 77.8% | viability, T/C (compound 1 µM) 85.8% and 90.9% and 79.7% | viability, T/C (compound 3.16 µM) 104% and 97.5% and 90.3% | viability, T/C (compound 10 µM) 100% and 105% and 104%
> 10000 nM: IC50 (curve of compound)

CCCS(=O)(=O)Nc1ccc(F)c(C(=O)c2c[nH]c3ncc(-c4ccc(Cl)cc4)cc23)c1F
inactive: viability, T/C (compound 0.0316 µM) 115% (2×) and 92.5% | viability, T/C (compound 0.1 µM) 103% and 94.5% and 95.3% | viability, T/C (compound 0.316 µM) 68.9% and 106% and 108% | viability, T/C (compound 1 µM) 8.17% and 109% and 104%

CC1COCCN1c1cc(C2(O)CC3CCC(C2)O3)c2cnn(-c3ccn[nH]3)c2n1 (stereo not given)
inactive: viability, T/C (compound 0.0316 µM) 35.6% and 35.7% and 28.2%
< 31.6 nM: IC50 (curve of compound)
active: viability, T/C (compound 0.1 µM) 5.4% and 6.31% and 4.72% | viability, T/C (compound 0.316 µM) 3.47% and 3.66% and 2.97% | viability, T/C (compound 1 µM) 4.37% and 4.46% and 4.22% | viability, T/C (compound 3.16 µM) 5.77% and 6.96% and 7.53% | viability, T/C (compound 10 µM) 7.08% and 8.11% and 7.48%
